How the values were obtained:
[1] = test system: Serum cytokine concentration; test: Serum cytokine protein (Multiplex MSD V-Plex) after LPS and lumateperone; type: in vivo, mouse
Method: All other reagents are obtained in the highest purity available from Sigma-Aldrich (St. Louis, MO) unless otherwise noted. […] Sigma-Aldrich, ref #0127: B8) diluted in 0.9% injectable saline while control group animals receive injections of all vehicles matching the experimental conditions. […] Tissue Collection. […] Rats are euthanized 18 hours after LPS injection for sample collection. Hippocampi from mice and rats are rapidly dissected under RNAse-free conditions and placed in 1.5 mL Eppendorf tubes. When appropriate, samples are snap frozen in liquid nitrogen prior to storage at −80° C. until further analysis. […] Multiplex Assays. […] All samples are run in duplicates or triplicates according to manufacturer instructions and analyzed with MSD Discovery Workbench software (Meso Scale Diagnostics). […] An additional experimental group receiving an injection with lumateperone alone is included as an additional control. Protein concentration is measured using the Multiplex MSD assay V-Plex technology. Results are expressed in pg/mL, except for IL-6, which is measured in ng/mL.

Corticosterone = test: Serum corticosterone (ELISA) after acute restraint stress; type: in vivo, mouse; settings: restraint stress 2 h + Luma 3 mg/kg IP; control 22.65, stressed 238.5
Method: Restraint Stress Protocol.
Using similar procedures as described above, serum corticosterone levels and hippocampal Cldn5 mRNA expression are measured as well (corticosterone is measured using a commercial ELISA kit).

[2] = test system: Hippocampal mRNA expression; test: Hippocampal mRNA (qRT-PCR) after acute restraint stress; type: in vivo, mouse; settings: restraint stress 2 h + Luma 3 mg/kg IP; control 0, stressed −0.138
Method: Quantitative Real-Time PCR. […] Heavy phase-lock gel tubes enabled separation of phases following the addition of 400 μL chloroform to the sample and centrifugation at 12,000 rpm for 10 minutes at room temperature. RNA is extracted using Qiagen Rneasy kit (Qiagen, Hilden, Germany). For cDNA synthesis, 2 μg of total RNA is used (SuperScript IV Reverse Transcriptase; ThermoFisher Scientific, Waltham, MA). The purity and concentration of RNA is measured with a Nanodrop spectrophotometer; the optical density (OD) 260/280 and OD 260/230 are within 1.8-2.3. In the hippocampus, 4 key markers of pro- and anti-inflammatory cytokines and chemokines (Il1b: ID Mm00434228_m1, Tnfa: ID Mm00443258_m1, Il6: ID Mm00446190_m1, and Il10: ID Mm01288386_ml; ThermoFisher Scientific) are initially chosen for analysis (n=5-12 per group). […] Mm00840904_m1). […] All mRNAs are measured by qRT-PCR on ABI Prism 7900HT system using TaqMan Gene Expression Assays. […] The results are shown in Table 4B as relative change in mRNA levels for each cytokine gene (Il1b, Il6, Tnfa, Il10) normalized to the control group using the Dct method: Using similar procedures as described above, serum corticosterone levels and hippocampal Cldn5 mRNA expression are measured as well (corticosterone is measured using a commercial ELISA kit).

[3] = test system: patients with schizophrenia; test: Phase 3 clinical trial in schizophrenia with acute exacerbation of psychosis; type: in vivo, human; settings: 60 mg or 40 mg lumateperone tosylate once daily for 28 days vs placebo
Method: A randomized, double-blind, placebo-controlled, phase 3 clinical trial was conducted with 450 patients with schizophrenia, aged 18 to 60 years, who were experiencing an acute exacerbation of psychosis. Patients were included if they were experiencing an acute exacerbation of psychosis, defined as a total score on the Brief Psychiatric Rating Scale of […] or higher, with a score of 4 or higher on 2 or more positive symptoms, and onset of the acute episode within 4 weeks of screening. Patients were required to have a score of 4 or higher, indicating moderate to severe disease severity, on the Clinical Global Impression-Severity of Illness (CGI-S) at screening and baseline. […]
The primary efficacy end point was mean change from baseline to day 28 in the Positive and Negative Syndrome Scale (PANSS) total score versus placebo. […] The PANSS subscale scores, social function, safety, and tolerability were also assessed. Primary and key secondary efficacy measures were assessed weekly. Safety was assessed by treatment-emergent adverse events (TEAEs), modified physical examinations, 12-lead electrocardiograms (ECGs), vital signs, and clinical laboratory tests (blood and urine samples for clinical laboratory analysis were collected from all subjects upon screening and on Days 1, 8, 28, and 33, following overnight fast).

Sprague-Dawley rats = test: Open Field Test (OFT), locomotion; type: in vivo, rat
Method: Behavioral Evaluation. All behavioral tests are performed in the morning with adult male Sprague-Dawley rats (n=9-11 per group for the experiments with LPS, and n=13-14 per group for the naïve rats).
Open Field Test (OFT). Rats are placed in an open field box (76.5×76.5×40 cm^3) under dim lighting and locomotor activity over a 10 minute period is measured using ANY-Maze Software (Stoelting Co., Wood Dale, IL).

SMILES: CN1CCN2c3c(cccc31)[C@@H]1CN(CCCC(=O)c3ccc(F)cc3)CC[C@@H]12 [Lumateperone, 4-((6bR,10aS)-3-methyl-2,3,6b,9,10,10a-hexahydro-1H-pyrido[3′,4′: 4,5]pyrrolo[1,2,3-de]quinoxaline-8 (7H)-yl)-1-(4-fluorophenyl)-1-butanone]
- Serum IL-1b concentration ([1]; LPS 500 μg/kg + Luma 3 mg/kg, LPS alone 6.27): 2.69 pg/mL
- Serum IL-6 concentration ([1]; LPS 500 μg/kg + Luma 3 mg/kg, LPS alone 14.52): 1.49 ng/mL
- Serum TNF-alpha concentration ([1]; LPS 500 μg/kg + Luma 3 mg/kg, LPS alone 335.3): 56.33 pg/mL
- Serum IL-10 concentration ([1]; LPS 500 μg/kg + Luma 3 mg/kg, LPS alone 980.4): 1014.3 pg/mL
- Serum IL-6 concentration ([1]; Luma 3 mg/kg alone, no LPS, saline only 0.51): 0.09 ng/mL
- Serum IL-1b concentration ([1]; Luma 3 mg/kg alone, no LPS, saline only 1.32): 1.47 pg/mL
- Serum TNF-alpha concentration ([1]; Luma 3 mg/kg alone, no LPS, saline only 14.08): 9.38 pg/mL
- Serum IL-10 concentration ([1]; Luma 3 mg/kg alone, no LPS, saline only 24.80): 48.93 pg/mL
- Serum concentration Corticosterone (Corticosterone): 167.3 ng/mL
- Hippocampal Cldn5 mRNA expression [2]: 0.330
- efficacy on symptoms of schizophrenia (PANSS total score, CGI-S) [3]: effective for improving the symptoms of schizophrenia
- safety and tolerability [3]: favorable safety profile
- OFT locomotion (Sprague-Dawley rats; naïve rats, Luma 1 mg/kg IP days 1 and 3, control 17.2): 32.8 m
- OFT locomotion (distance travelled) (Sprague-Dawley rats; open field track length, rats, LPS 1 mg/kg SC + Luma 1 mg/kg IP, control 13.29, LPS + Vehicle 12.81): 12.27 meters

From patent US20250195510A1, “NOVEL METHODS” (priority 2022, published 2025)
